According to a melting point compilation (Tetko et al.; mined from patent text by program, amines drawn as free bases though some values may be those of a salt):

SMILES	melting point [°C]
CCCCN(CCCC)c1ccc(C=CC2=CC(=CC=CC3=C(C#N)C(=C(C#N)C#N)OC3(C)C)CC(C)(C)C2)c(OC)c1	228 to 230
NC(=NCC(F)(F)F)Nc1ccnc(SCCCC(=O)NCCO)n1	148 to 150
CCCCOCCOc1ccc(-c2ccc3c(c2)C=C(C(=O)O)CCN3c2ccccc2)cc1	129 to 131
O=CN1CC2CC1CN2c1cc2c(cc1F)c(=O)c(C(=O)O)cn2-c1ccc(F)cc1 (stereo not given)	274 to 276
COC(=O)C[C@H]1[C@@H](C(C)=O)C(=O)N1C(c1ccccc1)(c1ccccc1)c1ccccc1	52 to 54
O=C(NCc1ccccc1[N+](=O)[O-])C1Cc2ccccc2N1S(=O)(=O)c1ccc(-c2ccc(F)cc2F)cc1 (stereo not given)	99 to 102
COc1cc(OC)c(F)c(N2Cc3cnc(SC)nc3N(C3CCCC3)C2=O)c1F	167 to 169
CC12CCC3C4CCC(=O)C=C4CCC3C1CCC2C(F)F (stereo not given)	102 to 103
CC(=O)Nc1c(F)ccc2c1CCC(C)N2 (stereo not given)	168 to 170
O=C(CC1CCCC1=O)c1ccc(Br)cc1 (stereo not given)	59 to 61
N#Cc1c(N2CCN(C(=O)c3ccco3)CC2)c2cc(Cl)ccc2n(Cc2ccc(F)cc2)c1=O	253
CC12CC(=O)C3C(CCC4CC=CCC43C)C1CCC2C#N (stereo not given)	189 to 191
O=C(O)c1ncn2c1c(=O)[nH]c1ccccc12	> 300
N#Cc1cnc2c(sc3ccc([N+](=O)[O-])cc32)c1Nc1cccc(Br)c1	> 300
COc1ccc(C(N)=O)c(OC)c1-c1ccc(C[C@H](NC(=O)c2c(Cl)cc(NC(N)=O)cc2Cl)C(=O)O)cc1	217 to 219
Cc1[nH]c2ccc(CCN3CCCCC3)cc2c1C(=O)OCc1ccccc1	159 to 161
CC(=NNC(=N)N)c1sc(-c2ccc(C3=CCCCC3)cc2)nc1C	213 to 215
CC(=O)N1CCC(c2ccccc2)c2cccc(CCN3CCN(c4nsc5ccccc45)CC3)c21 (stereo not given)	97
CC(C)(C)OC(=O)NCc1cccc(OCCC2Oc3ccccc3N(Cc3cccc(Cl)c3)C2=O)c1 (stereo not given)	98 to 100
CC1CC(=O)N(C)N=C1c1ccc2c(c1)OCC(=O)N2 (stereo not given)	204 to 206
O=C(CC(=O)C1CC1)c1cnccn1	111 to 112
COc1ccc(C(=O)Nc2cc(NC(=O)c3cccc(O)c3)ccc2C)cc1OC	182 to 183

SMILES	melting point [°C]
CCOC(=O)c1ccc2c(c1)Cc1ccc(C(=O)OCC)cc1O2	156 to 158
NS(=O)(=O)c1cc2c(s1)S(=O)(=O)N(CCO)C(CN1CCOCC1)=C2	104 to 108
O=C1c2c(Cl)cccc2-n2cnc(-c3noc(CN(Cc4ccccc4)Cc4ccccc4)n3)c2[C@@H]2CCCN12	107 to 109
COCc1ncccc1CN(CCn1ccc2oc(C)cc2c1=O)Cc1ccc2c(c1)NC(=O)C(C)(C)C(=O)N2CC1CC1	189 to 191
COC(=O)c1ccc2oc(CCCCc3cc4cc(C(=O)OC)ccc4o3)cc2c1	130 to 131
O=CCCCCC(=O)Nc1ccc(C(F)(F)F)cc1	130 to 131
CCCc1c(OCCCCCCc2cccc(OCCCCCCCCC(=O)O)c2CCC(=O)O)ccc2c1OCCC2=O	63 to 65
Cc1nc2ccc(OC3SCC(O)C(O)C3O)cc2s1 (stereo not given)	184
CC(=O)NCc1cccc2c1C(=O)N(C1CCC(=O)NC1=O)C2=O (stereo not given)	177 to 179
COc1ccc(-n2c(=O)c(C)nc3ccccc32)cc1	230 to 232
Cc1c(C(=O)Nc2ccc(N3CCN(C4CCSCC4)CC3)c(C#N)c2)cnn1-c1ccc(Cl)cc1	281
COc1ccc(Cl)cc1C1(F)C(=O)Nc2cc(C(F)(F)F)cc(C(F)(F)F)c21 (stereo not given)	262 to 264
Cc1nc2ccccc2c(=O)n1-c1ccc(Cl)cc1	141 to 142
COc1ccc2c(CC3CCN(CCc4c(C)sc5c4CCN(C(C)=O)C5)CC3)noc2c1OC	197 to 200
O=[N+]([O-])N=C1SCCN1Cc1ccncc1	151 to 152
COC(=O)c1ccccc1-c1ccc(CNc2nc(C(F)(F)F)nc3ccccc23)cc1	135 to 142
COc1ccc(COc2ccc3c(c2)OC(C)(C)C3c2ccc(C(C)C)cc2)cc1 (stereo not given)	86 to 88
COC(=O)Nc1nc2ccc(S(=O)c3ccccc3)cn2c1Br (stereo not given)	150 to 152
C#CCNC(=NCCSCc1nccs1)NC#N	138 to 140
Nc1c(-c2cccnc2)nsc1C(=O)O	235 to 236
CN1C(C)(C)CC(C(O)CNc2nc(Cl)nc(NCC(O)C3CC(C)(C)N(C)C(C)(C)C3)n2)CC1(C)C (stereo not given)	166 to 176
CCN(CC)C(=O)c1cncc(OC2SCC(O)C(O)C2O)c1 (stereo not given)	143

SMILES	melting point [°C]
O=C(O)c1cc(C(F)(F)F)cc(Cl)c1-n1cnc(C(F)(F)C(F)(F)F)cc1=O	189 to 190
CC1(C)COC(c2ccc(F)cc2Cl)=N1	138 to 139
CN(Cc1cc(C(F)(F)F)cc(C(F)(F)F)c1)C(=O)c1c(-c2ccc(F)cc2)c2c(c(=O)n1C)CCCN2	226 to 228
Cc1ccc(O)c(Cn2c(NC3CCNC(CCN4CCOCC4)C3)nc3ccc(CCc4ccccc4)cc32)n1 (stereo not given)	159
CC(C(N)=O)C1CC(c2ccc(N3CCSCC3)c(F)c2)=NO1 (stereo not given)	188 to 189
OC1Cc2cc(F)ccc2Sc2ccccc21 (stereo not given)	110 to 113
NC(=O)NC(=O)NCc1ccc(CNC(=O)[C@@H](CCCNC(N)=N[N+](=O)[O-])NC(=O)C(c2ccccc2)c2ccccc2)cc1	214 to 218
CN1CCC(Oc2ccc(C(=O)NN)cc2)CC1	110 to 112
COc1ccc2c(c1CC#N)Sc1c(ccc(OC)c1CN1C(=O)c3ccccc3C1=O)N2Cc1ccccc1	230
Cc1noc(NS(=O)(=O)c2ccccc2-c2ccccc2CO)c1C	70 to 80
CN(C)C(c1ccccc1Cl)C1CCCCC1(O)c1ccc2ccccc2c1 (stereo not given)	> 230
Cc1cc2c(-c3cccnc3)c(CC(=O)O)c(=O)oc2cc1Cl	279 to 281
CCOC(=O)C1=C(C)NC(C(OCC)OCC)=C(C(=O)OCC)C1c1cc([N+](=O)[O-])ccc1Cl (stereo not given)	117 to 118
O=C1NC(=O)C(CC#Cc2cc(C(F)(F)F)cc(C(F)(F)F)c2)(S(=O)(=O)c2ccccn2)S1 (stereo not given)	150 to 152
CC(=O)C1=C(C#N)C(c2cccc(C#N)c2Br)c2c[nH]nc2N1 (stereo not given)	> 230
Oc1ccc(C2COc3cc4c(cc3C2)OCO4)cc1 (stereo not given)	139 to 140
CCCCCCCCOC(=O)c1cc(C(C)(C)C)c(OC(=O)c2cc(C(C)(C)C)c(O)c(C(C)(C)C)c2)c(C(C)(C)C)c1	94 to 97
COc1ccccc1N1CCN(CC(O)COc2ccc3cc(C(N)=O)oc3c2)CC1 (stereo not given)	152 to 154
O=C(O)c1cc([N+](=O)[O-])cc2c1Nc1ccc(CCc3ccc(Cl)c(Cl)c3)cc1O2	> 250
COCCN(C)c1nccc(Oc2ccc(NC(=O)c3cc(F)cc(N4CCOCC4)c3)c3ccccc23)n1	96 to 98
C[C@H](Cn1nnc2ccccc21)n1cnc2cc3c(=O)n(C4CC4)nnc3cc2c1=O	103 to 105
